Assay results: publication PMC6943664 (Molecules, 2019)
Values joined by “and” are separate entries in the source; they are usually repeats but may differ in a detail not shown here. Equal values may be shown once. Where a name gives a salt, the structure may show the parent alone. Read-outs that look alike come from different tables or passages of the source.

What was measured:
human recombinant MAO A = biological target: T1, human recombinant MAO A (Homo sapiens, UniProt P21397); experiment: biochemical; conditions: for inhibition at 10 µM: read-out: MAO A % inhibition at 10 μM, mean ±SEM of three
T1 construct: purchased Sigma Aldrich, Milan, Italy
T1 sequence (P21397 1-527): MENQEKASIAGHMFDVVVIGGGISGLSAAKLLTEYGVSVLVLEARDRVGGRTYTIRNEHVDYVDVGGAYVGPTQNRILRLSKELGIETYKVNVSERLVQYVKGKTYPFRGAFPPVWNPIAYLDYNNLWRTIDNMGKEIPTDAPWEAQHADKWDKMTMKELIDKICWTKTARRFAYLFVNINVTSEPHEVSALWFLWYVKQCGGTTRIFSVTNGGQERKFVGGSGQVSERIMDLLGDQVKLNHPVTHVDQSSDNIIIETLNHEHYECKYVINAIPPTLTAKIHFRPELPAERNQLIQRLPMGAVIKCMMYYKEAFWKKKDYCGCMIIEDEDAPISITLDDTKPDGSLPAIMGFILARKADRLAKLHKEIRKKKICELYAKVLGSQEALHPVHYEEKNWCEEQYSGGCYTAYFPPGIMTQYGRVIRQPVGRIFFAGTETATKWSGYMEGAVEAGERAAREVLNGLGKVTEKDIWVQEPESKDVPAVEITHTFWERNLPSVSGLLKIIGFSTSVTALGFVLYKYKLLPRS
Method: (§1) In vitro enzymatic screening toward ChEs was carried out according to the known Ellman’s protocol, by using eeAChE and esBChE as highly homologous and cheaper surrogates for human enzymes. The enzyme inhibition assays on human MAOs were performed by applying already reported methods.
(§2) All enzymes and reagents were purchased from Sigma Aldrich, Milan, Italy. Inhibition of human recombinant MAO A and B was assayed by monitoring the fluorescence of 4-hydroxyquinoline produced from the oxidation of substrate kynuramine, following a previously published method. Acetylcholinesterase from electric eel and butyrylcholinesterase from equine serum were used in the Ellman’s spectrophotometric method as already described. In all cases, a 96-well plate procedure was used with an Infinite M1000 Pro plate reader (Tecan, Cernusco sul Naviglio, Italy). Inhibition values were determined as IC50 values by statistical analysis using Prism (GraphPad Prism version 5.00 for Windows, GraphPad Software, San Diego, CA, USA).

human recombinant MAO B = biological target: T2, human recombinant MAO B (Homo sapiens, UniProt P27338); experiment: Human recombinant MAO B inhibition (kynuramine fluorescence); assay type: biochemical; conditions: mean ±SEM of three independent experiments
T2 construct: purchased Sigma Aldrich, Milan, Italy
T2 sequence (P27338 1-520): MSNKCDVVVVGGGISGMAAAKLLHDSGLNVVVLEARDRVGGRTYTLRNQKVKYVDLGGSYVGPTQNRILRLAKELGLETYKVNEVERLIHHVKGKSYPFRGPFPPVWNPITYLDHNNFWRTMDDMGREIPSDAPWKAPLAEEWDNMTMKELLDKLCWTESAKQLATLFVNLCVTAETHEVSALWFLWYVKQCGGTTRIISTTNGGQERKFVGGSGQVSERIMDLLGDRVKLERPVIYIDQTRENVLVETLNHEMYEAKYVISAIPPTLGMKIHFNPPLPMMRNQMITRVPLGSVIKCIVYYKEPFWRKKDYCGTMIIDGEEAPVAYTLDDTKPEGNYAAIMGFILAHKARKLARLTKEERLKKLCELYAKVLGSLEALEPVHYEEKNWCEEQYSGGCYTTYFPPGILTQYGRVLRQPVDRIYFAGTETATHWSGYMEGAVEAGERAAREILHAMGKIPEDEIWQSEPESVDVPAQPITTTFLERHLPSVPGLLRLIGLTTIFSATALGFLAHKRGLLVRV
Method: as §1, §2

[1] = biological target: T3, butyrylcholinesterase from equine serum (Equus caballus, UniProt P81908); experiment: biochemical; assay type: biochemical; conditions: for inhibition at 10 µM: read-out: BChE % inhibition at 10 μM; for IC50: BChE from equine serum, mean ±SEM of three
T3 construct: butyrylcholinesterase from equine serum; purchased Sigma Aldrich, Milan, Italy; host or cells: equine serum
T3 sequence (P81908 whole entry): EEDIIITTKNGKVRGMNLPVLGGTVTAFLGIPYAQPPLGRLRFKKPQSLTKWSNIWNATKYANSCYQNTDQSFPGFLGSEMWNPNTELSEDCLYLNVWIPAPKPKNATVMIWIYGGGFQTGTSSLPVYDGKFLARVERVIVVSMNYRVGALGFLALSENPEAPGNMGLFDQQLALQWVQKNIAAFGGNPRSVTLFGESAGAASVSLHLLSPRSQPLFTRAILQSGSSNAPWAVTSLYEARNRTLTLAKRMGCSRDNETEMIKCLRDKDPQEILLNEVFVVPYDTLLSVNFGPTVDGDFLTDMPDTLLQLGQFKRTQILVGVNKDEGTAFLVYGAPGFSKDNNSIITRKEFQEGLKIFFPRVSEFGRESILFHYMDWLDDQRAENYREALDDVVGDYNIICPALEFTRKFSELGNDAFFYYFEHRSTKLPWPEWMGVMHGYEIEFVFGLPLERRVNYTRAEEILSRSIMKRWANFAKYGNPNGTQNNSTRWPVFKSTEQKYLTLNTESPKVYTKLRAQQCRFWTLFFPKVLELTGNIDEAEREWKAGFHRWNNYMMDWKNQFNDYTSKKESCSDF
Method: as §1, §2

[2] = biological target: T4, Acetylcholinesterase from electric eel (Electrophorus electricus, UniProt O42275); experiment: biochemical; assay type: biochemical; conditions: for inhibition at 10 µM: read-out: AChE % inhibition at 10 μM; for IC50: AChE from electric eel, mean ±SEM of three
T4 construct: purchased Sigma Aldrich, Milan, Italy
T4 sequence (O42275 24-633): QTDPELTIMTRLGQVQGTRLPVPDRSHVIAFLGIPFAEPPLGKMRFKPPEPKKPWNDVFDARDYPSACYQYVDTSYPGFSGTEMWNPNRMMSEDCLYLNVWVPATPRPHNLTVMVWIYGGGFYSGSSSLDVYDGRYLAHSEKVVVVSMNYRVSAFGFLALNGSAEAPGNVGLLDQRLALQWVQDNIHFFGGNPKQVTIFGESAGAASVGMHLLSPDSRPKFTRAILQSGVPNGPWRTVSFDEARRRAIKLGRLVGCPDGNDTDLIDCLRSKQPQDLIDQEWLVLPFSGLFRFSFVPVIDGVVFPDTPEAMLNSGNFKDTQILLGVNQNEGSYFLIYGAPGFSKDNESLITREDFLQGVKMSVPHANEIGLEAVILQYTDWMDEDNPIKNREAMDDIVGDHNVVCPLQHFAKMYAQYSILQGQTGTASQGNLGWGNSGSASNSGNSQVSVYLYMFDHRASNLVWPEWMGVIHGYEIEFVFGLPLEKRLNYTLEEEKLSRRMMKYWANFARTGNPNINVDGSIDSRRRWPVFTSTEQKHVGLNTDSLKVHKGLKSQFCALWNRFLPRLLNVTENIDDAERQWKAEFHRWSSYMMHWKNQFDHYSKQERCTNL
Method: as §1, §2

[3] = human recombinant MAO, mean ±SEM of three independent experiments, read-out: MAO A IC50
[4] = human recombinant MAO, read-out: MAO B IC50
[5] = MAO B IC50, human recombinant MAO

Compound: CNCc1cc(=O)oc2cc(OCc3ccccc3)ccc12 [compound 7, 7-(benzyloxy)-4-[(methylamino)methyl]-2H-chromen-2-one]
- IC50 (human recombinant MAO A; [3]): 530 ± 10 nM
- IC50 (human recombinant MAO B; [4]): 2.1 ± 0.2 nM
- inhibition at 10 µM [1]: 17 ± 1%
- inhibition at 10 µM [2]: 26 ± 5%

Compound: CNCc1cc(=O)oc2cc(OCc3ccc4c(c3)OCO4)ccc12 [compound 6, 7-(1,3-benzodioxol-5-ylmethoxy)-4-[(methylamino)methyl]-2H-chromen-2-one]
- IC50 (human recombinant MAO A; [3]): 1200 ± 100 nM
- IC50 (human recombinant MAO B; [4]): 7.5 ± 0.1 nM
- IC50 [1]: 3400 ± 2100 nM
- IC50 [2]: 8500 ± 1800 nM

Compound: C#CCNCc1cc(=O)oc2cc(OCc3cccc(Cl)c3)ccc12 [compound 22, 7-[(3-Chlorobenzyl)oxy]-4-[(prop-2-yn-1-ylamino)methyl]-2H-chromen-2-one]
- IC50 (human recombinant MAO A; [3]): 1100 ± 100 nM
- IC50 (human recombinant MAO B; [4]): 4.1 ± 1.1 nM
- inhibition at 10 µM [1]: 33 ± 6%
- IC50 [2]: 2100 ± 200 nM

Compound: CNCc1cc(=O)oc2cc(OCc3cccc(N(C)C)c3)ccc12 [compound 4, 7-{[3-(Dimethylamino)benzyl]oxy}-4-[(methylamino)methyl]-2H-chromen-2-one]
- inhibition at 10 µM (human recombinant MAO A; human recombinant MAO): 49 ± 1%
- IC50 (human recombinant MAO B; [4]): 570 ± 50 nM
- inhibition at 10 µM [1]: 34 ± 5%
- IC50 [2]: 6000 ± 1500 nM

Compound: CNCc1cc(=O)oc2cc(OCc3cccc(Cl)c3)c(C)cc12 [compound 11, 7-[(3-Chlorobenzyl)oxy]-6-methyl-4-[(methylamino)methyl]-2H-chromen-2-one hydrochloride]
- IC50 (human recombinant MAO A): 580 ± 30 nM
- IC50 (human recombinant MAO B; [5]): 68 ± 2 nM
- inhibition at 10 µM [1]: 48.1 ± 0.6%
- inhibition at 10 µM [2]: 47.1 ± 0.3%

Compound: CN1CCN(Cc2cc(=O)oc3cc(OCc4cccc(Cl)c4)ccc23)CC1 [compound 16, 7-[(3-Chlorobenzyl)oxy]-4-[(4-methylpiperazin-1-yl)methyl]-2H-chromen-2-one]
- inhibition at 10 µM (human recombinant MAO A; human recombinant MAO): 32 ± 5%
- IC50 (human recombinant MAO B; [4]): 270 nM and 273 nM
- IC50 [1]: 2300 ± 900 nM
- BChE/MAO B IC50 ratio ([1]; esBChE vs human MAO B): 9
- IC50 [2]: 3100 ± 600 nM
- AChE/MAO B IC50 ratio ([2]; eeAChE vs human MAO B): 11

Compound: CN(Cc1ccccc1)Cc1cc(=O)oc2cc(OCc3cccc(Cl)c3)ccc12 [compound 14, 4-{[benzyl(methyl)amino]methyl}-7-[(3-chlorobenzyl)oxy]-2H-chromen-2-one]
- inhibition at 10 µM (human recombinant MAO A; human recombinant MAO): 28 ± 1%
- IC50 (human recombinant MAO B; [4]): 332 ± 26 nM
- IC50 [1]: 6300 ± 300 nM
- IC50 [2]: 16000 ± 1000 nM

Compound: C#CCN(C)Cc1cc(=O)oc2cc(OCc3cccc(Cl)c3)ccc12 [compound 23, 7-[(3-Chlorobenzyl)oxy]-4-{[methyl(prop-2-yn-1-yl)amino]methyl}-2H-chromen-2-one hydrochloride]
- IC50 (human recombinant MAO A): 1700 ± 100 nM
- IC50 (human recombinant MAO B; [5]): 84 ± 2 nM
- inhibition at 10 µM [1]: 28 ± 1%
- IC50 [2]: 5600 ± 700 nM

Compound: CNC(=O)CNCc1cc(=O)oc2cc(OCc3cccc(Cl)c3)ccc12 [compound 25, N^2-({7-[(3-Chlorobenzyl)oxy]-2-oxo-2H-chromen-4-yl}methyl)-N^1-methylglycinamide]
- IC50 (human recombinant MAO A; [3]): 2600 ± 100 nM
- IC50 (human recombinant MAO B; [4]): 1.1 ± 0.3 nM
- inhibition at 10 µM [1]: < 5%
- IC50 [2]: 5300 ± 1400 nM

Compound: CCCCNCc1cc(=O)oc2cc(OCc3cccc(Cl)c3)ccc12 [compound 21, 4-[(butylamino)methyl]-7-[(3-chlorobenzyl)oxy]-2H-chromen-2-one]
- inhibition at 10 µM (human recombinant MAO A; human recombinant MAO): 41 ± 3%
- IC50 (human recombinant MAO B; [4]): 164 ± 2 nM
- IC50 [1]: 4800 ± 300 nM
- inhibition at 10 µM [2]: 39 ± 1%

Compound: O=c1cc(CN2CCOCC2)c2ccc(OCc3cccc(Cl)c3)cc2o1 [compound 17, 7-[(3-chlorobenzyl)oxy]-4-(morpholin-4-ylmethyl)-2H-chromen-2-one]
- inhibition at 10 µM (human recombinant MAO A; human recombinant MAO): 32 ± 3%
- IC50 (human recombinant MAO B; [4]): 172 ± 1 nM
- inhibition at 10 µM [1]: 46 ± 2%
- IC50 [2]: 6600 ± 1100 nM

Compound: CNCc1cc(=O)oc2c(C)c(OCc3cccc(Cl)c3)ccc12 [compound 10, 7-[(3-Chlorobenzyl)oxy]-8-methyl-4-[(methylamino)methyl]-2H-chromen-2-one]
- IC50 (human recombinant MAO A; [3]): 1000 ± 100 nM
- IC50 (human recombinant MAO B; [4]): 170 ± 10 nM
- inhibition at 10 µM [1]: 46 ± 2%
- IC50 [2]: 7200 ± 600 nM

Compound: CCCNCc1cc(=O)oc2cc(OCc3cccc(Cl)c3)ccc12 [compound 20, 7-[(3-chlorobenzyl)oxy]-4-[(propylamino)methyl]-2H-chromen-2-one]
- inhibition at 10 µM (human recombinant MAO A; human recombinant MAO): 48 ± 1%
- IC50 (human recombinant MAO B; [4]): 9.4 ± 3.5 nM
- IC50 [1]: 3600 ± 800 nM
- IC50 [2]: 4900 ± 1400 nM

Compound: O=c1cc(CN2CCCC2)c2ccc(OCc3cccc(Cl)c3)cc2o1 [compound 15, 7-[(3-chlorobenzyl)oxy]-4-(pyrrolidin-1-ylmethyl)-2H-chromen-2-one]
- IC50 (human recombinant MAO A; [3]): 1120 ± 10 nM
- IC50 (human recombinant MAO B; [4]): 152 ± 20 nM
- inhibition at 10 µM [1]: 14 ± 2%
- IC50 [2]: 6600 ± 900 nM

Compound: CN(C)Cc1cc(=O)oc2cc(OCc3cccc(Cl)c3)ccc12 [compound 19, 7-[(3-chlorobenzyl)oxy]-4-[(dimethylamino)methyl]-2H-chromen-2-one]
- IC50 (human recombinant MAO A; [3]): 9200 ± 700 nM
- IC50 (human recombinant MAO B; [4]): 213 ± 2 nM
- IC50 [1]: 7000 ± 1100 nM
- IC50 [2]: 8300 ± 2000 nM

Compound: COc1cc(COc2ccc3c(CNCC(N)=O)cc(=O)oc3c2)cc(OC)c1 [compound 27, N^2-({7-[(3,5-dimethoxybenzyl)oxy]-2-oxo-2H-chromen-4-yl}methyl)glycinamide]
- IC50 (human recombinant MAO A; [3]): 5900 ± 500 nM
- IC50 (human recombinant MAO B; [4]): 13 ± 1 nM
- inhibition at 10 µM [1]: 41 ± 2%
- IC50 [2]: 4400 ± 800 nM

Compound: O=c1cc(CNCc2ccccc2)c2ccc(OCc3cccc(Cl)c3)cc2o1 [compound 13, 4-[(benzylamino)methyl]-7-[(3-chlorobenzyl)oxy]-2H-chromen-2-one]
- inhibition at 10 µM (human recombinant MAO A; human recombinant MAO): 24 ± 3%
- IC50 (human recombinant MAO B; [4]): 103 ± 1 nM
- IC50 [1]: 3400 ± 1300 nM
- IC50 [2]: 17000 ± 1000 nM

Compound: CNCc1cc(=O)oc2cc(OCc3cccc(F)c3)ccc12 [compound 9, 7-[(3-fluorobenzyl)oxy]-4-[(methylamino)methyl]-2H-chromen-2-one]
- IC50 (human recombinant MAO A; [3]): 1740 ± 40 nM
- IC50 (human recombinant MAO B; [4]): 1.3 ± 0.1 nM
- IC50 [1]: 4800 ± 300 nM
- IC50 [2]: 2700 ± 1000 nM

Compound: CNCc1cc(=O)oc2cc(OCc3cccc(Cl)c3)c(Cl)cc12 [compound 12, 6-Chloro-7-[(3-chlorobenzyl)oxy]-4-[(methylamino)methyl]-2H-chromen-2-one]
- inhibition at 10 µM (human recombinant MAO A; human recombinant MAO): 48 ± 1%
- IC50 (human recombinant MAO B; [4]): 1000 ± 100 nM
- inhibition at 10 µM [1]: 27 ± 2%
- IC50 [2]: 7900 ± 400 nM

Compound: NCc1cc(=O)oc2cc(OCc3cccc(Cl)c3)ccc12 [compound 18, 4-(aminomethyl)-7-[(3-chlorobenzyl)oxy]-2H-chromen-2-one]
- inhibition at 10 µM (human recombinant MAO A; human recombinant MAO): 46 ± 3%
- IC50 (human recombinant MAO B; [4]): 66 ± 15 nM
- inhibition at 10 µM [1]: 20 ± 7%
- IC50 [2]: 17000 ± 4000 nM

Compound: CN(C)C(=O)CNCc1cc(=O)oc2cc(OCc3cccc(Cl)c3)ccc12 [compound 26, N^2-({7-[(3-Chlorobenzyl)oxy]-2-oxo-2H-chromen-4-yl}methyl)-N^1,N^1-dimethylglycinamide]
- IC50 (human recombinant MAO A; [3]): 2500 ± 500 nM
- IC50 (human recombinant MAO B; [4]): 30 ± 1 nM
- inhibition at 10 µM [1]: 34 ± 2%
- IC50 [2]: 4300 ± 600 nM

Compound: CNCc1cc(=O)oc2cc(OCc3cc(OC)cc(OC)c3)ccc12 [compound 5, 7-[(3,5-Dimethoxybenzyl)oxy]-4-[(methylamino)methyl]-2H-chromen-2-one]
- IC50 (human recombinant MAO A; [3]): 1000 ± 100 nM
- IC50 (human recombinant MAO B; [4]): 67 ± 5 nM
- inhibition at 10 µM [1]: 20 ± 4%
- IC50 [2]: 11000 ± 2000 nM
